Laboratory results from paper PMC8037182, “Solvothermal Synthesis of Multiple Dihydropyrimidinones at a Time as Inhibitors of Eg5” (Molecules, 2021).

Tests used:
[1] = tested on: Caco-2 cell line; experiment: Cytotoxicity MTS assay, Caco-2 cell line; format: cell-based; details: for OD490 Mean / OD490 Well 1 / OD490 Well 2 / OD490 Well 3: Caco-2 cell line
Outline: (§1)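 MTS antiproliferation; 1000 cells/well, 24 h pre-incubation; compound 0.5–100 µM final, 24 h exposure; vehicle 0.025% DMSO; monastrol positive control; MTS 2 h, 37 °C, 5% CO2; A490; IC50 by non-linear regression of % viability vs concentration; three independent duplicate runs.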

[2] = tested on: T24 cell line; experiment: Cytotoxicity MTS assay, T24 cell line; format: cell-based; details: for OD490 Mean / OD490 Well 1 / OD490 Well 2 / OD490 Well 3: T24 cell line;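 as to OD490 Mean: blank control wells received 0.025% DMSO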;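 as to OD490 Well 1: blank control wells received 0.025% DMSO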;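 as to OD490 Well 2: blank control wells received 0.025% DMSO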;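 as to OD490 Well 3: blank control wells received 0.025% DMSO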
Outline: as §1

## CCOC(=O)c1[nH]c(C2NC(=O)NC(C)=C2C(=O)Nc2ccccc2C)c(C(=O)OC)c1C (centres unmarked) [D4]
[1]; 0.5μM, first assay
  OD490 Mean: 0.5704
  OD490 Well 1: 0.5884
  OD490 Well 2: 0.5582
  OD490 Well 3: 0.5647
[1]; 0.5μM, second assay
  OD490 Mean: 0.5955
  OD490 Well 1: 0.5407
  OD490 Well 2: 0.6416
  OD490 Well 3: 0.6041
[1]; 0.5μM, third assay
  OD490 Mean: 0.6609
  OD490 Well 1: 0.6698
  OD490 Well 2: 0.6201
  OD490 Well 3: 0.6928
[1]; 1μM, first assay
  OD490 Mean: 0.5753
  OD490 Well 1: 0.5948
  OD490 Well 2: 0.5673
  OD490 Well 3: 0.5637
[1]; 1μM, second assay
  OD490 Mean: 0.6402
  OD490 Well 1: 0.6433
  OD490 Well 2: 0.6589
  OD490 Well 3: 0.6185
[1]; 1μM, third assay
  OD490 Mean: 0.6218
  OD490 Well 1: 0.6635
  OD490 Well 2: 0.6890
  OD490 Well 3: 0.5129
[1]; 10μM, first assay
  OD490 Mean: 0.5338
  OD490 Well 1: 0.5500
  OD490 Well 2: 0.5282
  OD490 Well 3: 0.5233
[1]; 10μM, second assay
  OD490 Mean: 0.5742
  OD490 Well 1: 0.5277
  OD490 Well 2: 0.6414
  OD490 Well 3: 0.5536
[1]; 10μM, third assay
  OD490 Mean: 0.5630
  OD490 Well 1: 0.5899
  OD490 Well 2: 0.5614
  OD490 Well 3: 0.5377
[1]; 25μM, first assay
  OD490 Mean: 0.5869
  OD490 Well 1: 0.5783
  OD490 Well 2: 0.5766
  OD490 Well 3: 0.6058
[1]; 25μM, second assay
  OD490 Mean: 0.5033
  OD490 Well 1: 0.5352
  OD490 Well 2: 0.4777
  OD490 Well 3: 0.4969
[1]; 25μM, third assay
  OD490 Mean: 0.5111
  OD490 Well 1: 0.5123
  OD490 Well 2: 0.4876
  OD490 Well 3: 0.5333
[1]; 50μM, first assay
  OD490 Mean: 0.5039
  OD490 Well 1: 0.4576
  OD490 Well 2: 0.5055
  OD490 Well 3: 0.5485
[1]; 50μM, second assay
  OD490 Mean: 0.4399
  OD490 Well 1: 0.41
  OD490 Well 2: 0.4612
  OD490 Well 3: 0.4486
[1]; 50μM, third assay
  OD490 Mean: 0.4077
  OD490 Well 1: 0.4412
  OD490 Well 2: 0.4698
  OD490 Well 3: 0.3120
[1]; 100μM, first assay
  OD490 Mean: 0.3850
  OD490 Well 1: 0.4202
  OD490 Well 2: 0.3796
  OD490 Well 3: 0.3553
[1]; 100μM, second assay
  OD490 Mean: 0.3934
  OD490 Well 1: 0.4418
  OD490 Well 2: 0.3643
  OD490 Well 3: 0.3741
[1]; 100μM, third assay
  OD490 Mean: 0.4011
  OD490 Well 1: 0.3698
  OD490 Well 2: 0.4013
  OD490 Well 3: 0.4321
[1]; MTS assay, 24 h exposure
  IC50: 80.5 µM
[2]; MTS assay, 24 h exposure
  IC50: 129 µM
[2]; 0.5μM, first assay
  OD490 Mean: 1.9335
  OD490 Well 1: 1.4364
  OD490 Well 2: 2.2473
  OD490 Well 3: 2.1169
[2]; 0.5μM, second assay
  OD490 Mean: 1.7407
  OD490 Well 1: 1.6852
  OD490 Well 2: 1.7785
  OD490 Well 3: 1.7585
[2]; 0.5μM, third assay
  OD490 Mean: 1.7395
  OD490 Well 1: 1.7423
  OD490 Well 2: 1.7741
  OD490 Well 3: 1.7022
[2]; 1μM, first assay
  OD490 Mean: 2.0004
  OD490 Well 1: 1.9146
  OD490 Well 2: 1.8237
  OD490 Well 3: 2.2630
[2]; 1μM, second assay
  OD490 Mean: 1.6895
  OD490 Well 1: 1.7235
  OD490 Well 2: 1.6895
  OD490 Well 3: 1.6555
[2]; 1μM, third assay
  OD490 Mean: 1.7159
  OD490 Well 1: 1.7423
  OD490 Well 2: 1.7020
  OD490 Well 3: 1.7033
[2]; 10μM, first assay
  OD490 Mean: 1.7700
  OD490 Well 1: 1.7289
  OD490 Well 2: 1.7432
  OD490 Well 3: 1.8379
[2]; 10μM, second assay
  OD490 Mean: 1.7224
  OD490 Well 1: 1.6895
  OD490 Well 2: 1.7125
  OD490 Well 3: 1.7652
[2]; 10μM, third assay
  OD490 Mean: 1.7024
  OD490 Well 1: 1.6647
  OD490 Well 2: 1.7424
  OD490 Well 3: 1.7000
[2]; 25μM, first assay
  OD490 Mean: 1.7511
  OD490 Well 1: 1.6328
  OD490 Well 2: 1.8078
  OD490 Well 3: 1.8128
[2]; 25μM, second assay
  OD490 Mean: 1.5821
  OD490 Well 1: 1.5660
  OD490 Well 2: 1.5848
  OD490 Well 3: 1.5954
[2]; 25μM, third assay
  OD490 Mean: 1.5535
  OD490 Well 1: 1.5385
  OD490 Well 2: 1.5232
  OD490 Well 3: 1.5987
[2]; 50μM, first assay
  OD490 Mean: 1.6313
  OD490 Well 1: 1.6866
  OD490 Well 2: 1.7561
  OD490 Well 3: 1.4513
[2]; 50μM, second assay
  OD490 Mean: 1.4096
  OD490 Well 1: 1.4425
  OD490 Well 2: 1.4212
  OD490 Well 3: 1.3652
[2]; 50μM, third assay
  OD490 Mean: 1.4169
  OD490 Well 1: 1.4284
  OD490 Well 2: 1.4022
  OD490 Well 3: 1.4202
[2]; 100μM, first assay
  OD490 Mean: 1.4469
  OD490 Well 1: 1.4538
  OD490 Well 2: 1.4557
  OD490 Well 3: 1.4313
[2]; 100μM, second assay
  OD490 Mean: 1.2781
  OD490 Well 1: 1.3325
  OD490 Well 2: 1.2654
  OD490 Well 3: 1.2365
[2]; 100μM, third assay
  OD490 Mean: 1.2819
  OD490 Well 1: 1.2539
  OD490 Well 2: 1.3332
  OD490 Well 3: 1.2585
